The text below walks through data of patent US11111238B2, “Coumarin derivatives, processes for their preparation and uses thereof for the treatment of cancer” (Lead Discovery Center GmbH, priority 2017, dated 2021).

Sequence of mitochondrial RNA-polymerase (POLRMT) (Q8BKF1 42-1207): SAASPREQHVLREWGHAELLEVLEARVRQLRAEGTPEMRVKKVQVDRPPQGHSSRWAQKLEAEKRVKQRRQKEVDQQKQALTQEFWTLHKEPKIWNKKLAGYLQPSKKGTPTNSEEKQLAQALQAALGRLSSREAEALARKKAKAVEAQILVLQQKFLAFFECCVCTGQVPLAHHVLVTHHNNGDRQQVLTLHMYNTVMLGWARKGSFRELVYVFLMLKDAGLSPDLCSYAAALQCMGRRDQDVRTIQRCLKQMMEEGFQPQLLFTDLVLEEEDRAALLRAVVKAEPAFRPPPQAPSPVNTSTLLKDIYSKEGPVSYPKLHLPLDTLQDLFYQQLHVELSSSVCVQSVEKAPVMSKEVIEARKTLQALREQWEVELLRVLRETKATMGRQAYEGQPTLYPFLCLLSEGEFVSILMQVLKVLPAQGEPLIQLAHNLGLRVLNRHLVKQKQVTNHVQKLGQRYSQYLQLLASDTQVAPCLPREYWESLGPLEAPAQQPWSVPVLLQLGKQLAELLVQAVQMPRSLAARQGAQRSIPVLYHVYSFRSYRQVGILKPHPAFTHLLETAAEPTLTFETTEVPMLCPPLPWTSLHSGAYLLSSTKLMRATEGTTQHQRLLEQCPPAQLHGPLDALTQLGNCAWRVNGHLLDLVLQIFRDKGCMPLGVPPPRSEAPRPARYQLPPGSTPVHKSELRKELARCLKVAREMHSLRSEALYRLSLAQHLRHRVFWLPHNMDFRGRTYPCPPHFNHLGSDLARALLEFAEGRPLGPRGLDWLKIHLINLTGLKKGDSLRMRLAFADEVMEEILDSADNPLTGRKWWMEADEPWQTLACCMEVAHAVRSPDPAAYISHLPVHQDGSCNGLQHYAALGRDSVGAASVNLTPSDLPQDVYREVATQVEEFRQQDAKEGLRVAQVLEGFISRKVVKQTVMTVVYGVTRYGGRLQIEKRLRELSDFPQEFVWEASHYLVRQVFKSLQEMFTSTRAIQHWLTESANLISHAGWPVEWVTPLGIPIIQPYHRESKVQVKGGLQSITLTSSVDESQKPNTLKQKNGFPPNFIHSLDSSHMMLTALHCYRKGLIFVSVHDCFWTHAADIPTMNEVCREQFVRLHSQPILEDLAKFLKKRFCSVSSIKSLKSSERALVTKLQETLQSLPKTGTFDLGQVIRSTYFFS

The assay addresses mitochondrial RNA-polymerase (POLRMT) (Mus musculus, UniProt Q8BKF1). Nature of the assay: Homogeneous TR-FRET assay for mitochondrial transcription activity. Type of assay: biochemical. Particulars: homogeneous TR-FRET assay according to Example 4; activity class. From the text:
The TR-FRET assay was basically conducted as described in WO2016/193,231A1, especially as described in example 1 (hereby incorporated by reference). With respect to the background of the mitochondrial transcription it is referred to Falkenberg et al. (2002) and Posse et al. (Posse et al., 2015). The method monitors the activity of mitochondrial RNA-polymerase via detection of the formation of its product, a 407 bp long RNA sequence. Detection of the product is facilitated by hybridization of two DNA-oligonucleotide probes to specific and adjacent sequences within the RNA product sequence. Upon annealing of the probes, two fluorophores that are coupled directly to an acceptor nucleotide probe (ATT0647, 5′) or introduced via a coupled streptavidin interacting with a biotinylated donor nucleotide probe on the other side (Europium cryptate, 3′) are brought into sufficient proximity to serve as a fluorescence-donor-acceptor pair as generally described in Walters and Namchuk (2003). Thus, a FRET signal at 665 nm is generated upon excitation at 340 nm.
Briefly, the protocol described here was applied for screening and activity determination in a low-volume 384-well microtiter plate with non-binding surface. For high-throughput application in the 1536-well microtiter plate format, volumes of the reagent mixes were adjusted, maintaining the volumetric ratio. Proteins POLRMT (NM_172551.3), TFAM (NM_009360.4) and TFB2 M (NM_008249.4) were diluted from their stocks to working concentrations of 150 nM, 1.8 μM and 330 nM respectively, in a dilution buffer containing 100 mM Tris-HCl pH 8.0, 200 mM NaCl, 10% (v/v) glycerole, 2 mM glutathione (GSH), 0.5 mM EDTA and 0.1 mg/mL BSA. Protein dilutions and template DNA, comprising a pUC18 plasmid encoding the mitochondrial light strand promoter, restriction linearized proximal to the promoter 3′-end (pUC-LSP), were mixed at the twofold final assay-concentration in a reaction buffer, containing 10 mM Tris-HCl pH 7.5, 10 mM MgCl2, 40 mM NaCl, 2 mM GSH, 0.01% (w/v) Tween-20 and 0.1 mg/mL BSA.
5 μL of this mix were dispensed, depending on the chosen microtiter plate format, using multi-channel pipettes or a Multidrop® dispenser (Thermo Fisher Scientific, Waltham Mass.) into the wells of a microtiter plate and incubated at room temperature (RT) for 10 min. Chemical compounds under scrutiny in the assay were applied using contact-free acoustic droplet-dispensing (Echo520® Labcyte Inc., Sunnyvale Calif.) from 10 mM compound stocks in 100% DMSO, to a final concentration of 10 μM or in serial dilution series of the required concentration range. Equal amounts of DMSO without any compound were added to positive control samples, followed by an incubation step at RT for 10 min.
The enzymatic reaction was started by the addition of 5 μL of a mix of […] in reaction buffer to a final concentration of 500 μM each. No nucleotide mix was added to negative control samples. The content of the wells was mixed using a VarioTeleshaker™ (Thermo Fisher Scientific, Waltham Mass.) at 1,500 rpm for 45 sec after which the microtiter plate was centrifuged at 500×g for 1 min. The samples were incubated for 2 h at RT with humidity control to avoid evaporation. The detection reagents were prepared in a buffer that was composed, such that the enzymatic reaction was terminated due to chelating of Mg-ions and increased ionic strength, containing 50 mM Tris-HCl pH 7.5, 700 mM NaCl, 20 mM EDTA, and 0.01% (w/v) Tween-20. Importantly Eu-cryptate-coupled streptavidin had to be pre-incubated with a 100-fold molar excess of a random sequence oligonucleotide for 10 min at RT in the dark to block unspecific binding of single stranded RNA to the protein. Subsequently, the blocked streptavidin(—Eu) was mixed with the DNA-probes on ice and kept away from light until use. […]
A general note: Time-resolved FRET reads energy transfer from a long-lived donor to a nearby acceptor.
With `CC(Oc1ccc2c(-c3cccc(F)c3Cl)cc(=O)oc2c1)C(=O)N1CCCC(S(N)(=O)=O)C1` (centres unmarked) [Compound 52, 1-[2-[4-(2-chloro-3-fluoro-phenyl)-2-oxo-chromen-7-yl]oxypropanoyl]piperidine-3-sulfonamide], the half-inhibitory concentration (IC50) is less than 20 nM.
The figure for `CC(Oc1ccc2c(-c3ccccc3Cl)cc(=O)oc2c1)C(=O)O` (centres unmarked) [Compound 96, 2-[4-(2-chlorophenyl)-2-oxo-chromen-7-yl]oxypropanoic acid] is 100 to 1000 nM; for `CCOC(=O)C(C)Oc1ccc2c(-c3ccc(F)cc3Cl)cc(=O)oc2c1` (centres unmarked) [Compound 82, Ethyl 2-((4-(2-chloro-4-fluorophenyl)-2-oxo-2H-chromen-7-yl)oxy)propanoate] it is 20 to 100 nM; for `CCOC(=O)C(C)(C)Oc1ccc2c(-c3ccccc3Cl)cc(=O)oc2c1` [Compound 113, ethyl 2-[4-(2-chlorophenyl)-2-oxo-chromen-7-yl]oxy-2-methyl-propanoate] it is 100 to 1000 nM.
As to `Cc1ccccc1-c1cc(=O)oc2cc(OC(C)C(=O)N3CCCC(S(=O)(=O)O)C3)ccc12` (centres unmarked) [Compound 10, 1-[2-[4-(o-tolyl)-2-oxo-chromen-7-yl]oxypropanoyl]piperidine-3-sulfonic acid], the IC50 is less than 20 nM.
On to `COC(=O)c1ccnc(NC(=O)[C@@H](C)Oc2ccc3c(-c4ccc(F)cc4Cl)cc(=O)oc3c2)c1` [Compound 146, methyl 2-[[(2R)-2-[4-(2-chloro-4-fluoro-phenyl)-2-oxo-chromen-7-yl]oxypropanoyl]amino]pyridine-4-carboxylate], for which the IC50 lay in the range of 100 to 1000 nM.
The figure for `Cc1ccccc1-c1cc(=O)oc2cc(OC(C)C(=O)Nc3ccccn3)ccc12` (centres unmarked) [Compound 4, 2-[4-(o-tolyl)-2-oxo-chromen-7-yl]oxy-N-(2-pyridyl)propanamide] is less than 20 nM; for `COC(=O)C[C@H]1CCCN(C(=O)[C@@H](C)Oc2ccc3c(-c4ccccc4Cl)cc(=O)oc3c2)C1` [Compound 101, methyl 2-[(3R)-1-[(2R)-2-[4-(2-chlorophenyl)-2-oxo-chromen-7-yl]oxypropanoyl]-3-piperidyl]acetate] it is less than 20 nM; for `CC(Oc1ccc2c(-c3ccccc3Cl)cc(=O)oc2c1)C(=O)Nc1ccccn1` (centres unmarked) [Compound 31, 2-[4-(2-chlorophenyl)-2-oxo-chromen-7-yl]oxy-N-(2-pyridyl)propanamide] it is less than 20 nM.
The figure for `COC(=O)c1ccc(NC(=O)[C@@H](C)Oc2ccc3c(-c4ccc(F)cc4Cl)cc(=O)oc3c2)cn1` [Compound 153, methyl 5-[[(2R)-2-[4-(2-chloro-4-fluoro-phenyl)-2-oxo-chromen-7-yl]oxypropanoyl]amino]pyridine-2-carboxylate] is 20 to 100 nM.
Molecule `CCOC(=O)C1(C)CCCN(C(=O)C(C)Oc2ccc3c(-c4ccccc4C)cc(=O)oc3c2)C1` (centres unmarked) [Compound 88, ethyl 3-methyl-1-[2-[4-(o-tolyl)-2-oxo-chromen-7-yl]oxypropanoyl]piperidine-3-carboxylate] yielded an IC50 of 20 to 100 nM.
The figure for `Cc1ccccc1-c1cc(=O)oc2cc(O[C@H](C)C(=O)N(C)C)ccc12` [Compound 44, (2R)-N,N-dimethyl-2-[4-(o-tolyl)-2-oxo-chromen-7-yl]oxy-propanamide] is less than 20 nM; for `CCOC(=O)C1(C)CCCN(C(=O)C(C)Oc2ccc3c(-c4ccccc4Cl)cc(=O)oc3c2)C1` (centres unmarked) [Compound 75, ethyl 1-[2-[4-(2-chlorophenyl)-2-oxo-chromen-7-yl]oxypropanoyl]-3-methyl-piperidine-3-carboxylate] it is 20 to 100 nM; for `COC(=O)c1cncc(NC(=O)[C@@H](C)Oc2ccc3c(-c4ccc(F)cc4Cl)cc(=O)oc3c2)c1` [Compound 143, methyl 5-[[(2R)-2-[4-(2-chloro-4-fluoro-phenyl)-2-oxo-chromen-7-yl]oxypropanoyl]amino]pyridine-3-carboxylate] it is 100 to 1000 nM.

For orientation: IC50 means the concentration that gives 50% inhibition. Low readings indicate inhibition by little substance, high ones a need for much substance.
